Experimental data published in patent publication US20220177511A1, “SERIES OF HALOGENATED TETRACYCLIC TRITERPENE DERIVATIVES AND THEIR PREPARATION AND APPLICATION” (SHANGHAI KING-X BIOTECH CO., LTD, priority 2019, published 2022).
Read-outs that look alike come from different tables or passages of the source.

Assay: Plasma pharmacokinetics after single intravenous injection in rats
Type: in vivo
Conditions: rat, intravenous 2 mg/kg, Mean ± SD; for concentration at 0.05 h: read-out: C0.05; for MRT inf: read-out: MRT0-∞; for Vd: read-out: Vz
Experimental: Strain: SD rat; Gender: half male and female. Weight: about 200-250 g. Source: Shanghai Slac Laboratory Animal Co., Ltd. Laboratory Animal Production License No.: SOCK (Shanghai) 2017-0005. Laboratory Animal Use License Certificate number: SYXK (Shanghai) 2014-0018. Breeding: constant temperature purification and ventilation animal room, 20-26° C., free food and water, humidity 40-70%, light for 12 h.
Route B: single intravenous injection. Volume: calculated according to 5 mL/kg body weight. Preparation: an appropriate amount of compound 2 is dissolved in 3% total volume of DMSO. 3% total volume of castor oil is added to the solution and mixed by vortexing, an appropriate amount of normal saline is added to form an intravenous drug solution (0.4 mg/mL clear solution).
12 SD rats were divided into 2 groups, 6 rats in each group, […]. Fasting for 12 h before administration, free drinking water. The doses of 10 mg/kg were administered as a single gavage, and the doses of 2 mg/kg were administered as a single intravenous injection. About 100 μL orbital blood was collected before administration, 3 min, 10 min, 20 min, 30 min, 1 h, 2 h, 3 h, 4 h, 6 h, 8 h, 11 h, and 24 h after administration. For intravenous administration, orbital blood was collected before administration, 3 min, 8 min, 15 min, 30 min, 1 h, 2 h, 3 h, 4 h, 6 h, 8 h, 11 h, 24 h after injection. The blood was anticoagulated with 1% heparin, centrifuged at 8000 rpm for 4 min, and the plasma was separated. Store at −20° C. High concentration samples were diluted with blank plasma. 2.1.4 Determination method of plasma samples 2.1.4.1 Instrument (LC-MS/MS)
Liquid chromatography system: Ultimate3000 liquid chromatography system (including Ultimate3000 ternary infusion pump, Ultimate3000 column oven, Ultimate3000 autosampler and Ultimate3000 vacuum degasser), Dionex Corporation. MS/MS system: 4000 Q-Trap tandem mass spectrometer with electrospray ionization source (ESI source), AB Company
Column: Athena C18-WP 100A (2.1×50 mm, 5 μm); Injection volume: 10 μL; Mobile phase: A: acetonitrile; C: 0.05% ammonia, gradient elution (see table below); Flow rate: 0.3 mL/min
The ion source is electrospray ionization source (ESI), the drying gas (N2) temperature is 500° C., the electrospray voltage is −4500 V, the detection method is negative ion detection, the scanning method is the […] (MRM) method and the scanning time is 0.15 s. The mass spectrometry parameters are as follows:
50 μL of rat whole blood was added with 2.5 μL of internal standard working solution (250 ng/mL tolbutamide). 150 μL of acetonitrile was used to precipitate the proteins. The sample was centrifuged at 13,000 rpm and 4° C. for 5 min. The upper organic phase was taken and filtered with a 0.22 μM microporous membrane, which was then analyzed by LC-MS/MS.

For `CC(C)(O)[C@@H]1CC[C@](C)([C@H]2[C@@H](O)C[C@@]3(C)[C@@H]4C[C@H](O)[C@H]5C(C)(C)C(F)(F)CC[C@@]56C[C@@]46CC[C@]23C)O1` [Compound 2, (2aR,3R,4S,5aS,5bS,7S,7aR,11aR,12aS)-9,9-difluoro-3-((2R,5S)-5-(2-hydroxypropan-2-yl)-2-methyltetrahydrofuran-2-yl)-2a,5a,8,8-tetramethyltetradecahydro-1H,12H-cyclopenta[a]cyclopropa[e]phenanthrene-4,7-diol], the AUC0-t (both sexes, all rats (♂ and ♀)) was 1590 ± 585 ng·h/mL, the AUC(0-inf) (both sexes, all rats (♂ and ♀)) was 1660 ± 656 ng·h/mL and the clearance (both sexes, all rats (♂ and ♀)) was 23 mL/min/kg. It also gave a half-life (both sexes, all rats (♂ and ♀)) of 70.8 ± 24.6 min, a concentration at 0.05 h (both sexes, all rats (♂ and ♀)) of 1460 ± 232 ng/mL and an MRT inf (both sexes, all rats (♂ and ♀)) of 1.55 ± 0.59 h. For the same molecule, the Vd (both sexes, all rats (♂ and ♀)) was 2.13 ± 0.38 L/kg, the AUC0-t (female, rats ♀) was 2120 ± 114 ng·h/mL and the AUC(0-inf) (female, rats ♀) was 2250 ± 206 ng·h/mL. For the same molecule, the clearance (female, rats ♀) was 14.9 mL/min/kg, the half-life (female, rats ♀) was 88.2 min and the concentration at 0.05 h (female, rats ♀) was 1390 ± 250 ng/mL. It also gave an MRT inf (female, rats ♀) of 2.03 ± 0.41 h, a Vd (female, rats ♀) of 1.86 ± 0.348 L/kg and an AUC0-t (male, rats ♂) of 1060 ± 113 ng·h/mL. For the same molecule, the AUC(0-inf) (male, rats ♂) was 1080 ± 106 ng·h/mL, the clearance (male, rats ♂) was 31 mL/min/kg and the half-life (male, rats ♂) was 54 min. The concentration at 0.05 h (male, rats ♂) was 1540 ± 233 ng/mL, the MRT inf (male, rats ♂) was 1.07 ± 0.09 h and the Vd (male, rats ♂) was 2.39 ± 0.168 L/kg.
